One series relates to Hep-G2 cells. The experiment in a line: Cell cytotoxicity CC50. In kind it is cell-based. As to conditions: mean of at least two experiments unless (n = 1).
The subject of another series is RSV A2. The experiment in a line: RSV plaque reduction assay in Hep-G2 cells. In kind it is cell-based, respiratory syncytial virus (RSV). As to conditions: Hep-G2 cells, RSV A2, 2 days, mean of at least two experiments, read-out: RSV A2 Plaque EC50. Here is the method: Compounds were subjected to RSV plaque reduction assays according to the following protocol. Plaque EC50 and cell toxicity CC50 values are a mean of at least two experiments and figures are rounded to whole units.
Hep-G2 cells (ECACC, 85011430) were passaged in flasks and seeded in 24-well plates in DMEM containing antibiotics and supplemented with 10% FBS. During inoculation and subsequent incubation, cells were cultured in DMEM containing 2% FBS. 100 plaque forming unit/well of RSV (RSV A2 ECACC, 0709161v) was mixed with eight serial dilutions of compound. Subsequently, 100 μL of the virus/compound mixtures was added to confluent Hep-G2 cell monolayers. The cells and virus/compound mixtures were incubated at 37° C. in a humidified 5% CO2 incubator for 2 h prior to removal of the inoculum and addition of 1 mL of overlay (DMEM containing 2% FBS and 0.8% CMC) containing compound dilutions. The cells and were incubated at 37° C. in a humidified 5% CO2 incubator for 2 days.
Cells were washed with PBS before adding 75/25% v/v EtOH/MeOH, for 3 min. Fixative was removed and plates were washed with PBS. A pre-titrated amount of the primary antibody was added in 200 μL PBS/2% milk powder, and plates incubated for 90 min at 37° C. The plates were washed 3 times with PBS/0.05% Tween20 before addition of rabbit anti-goat horse radish peroxidase in 200 μL PBS/2% milk powder, and incubated for 1 h at 37° C. Following three wash steps with PBS/0.05% Tween20, 200 μL ready-to-use TrueBlue was added and plates were incubated at rt for 10-15 min before washing with water. After removal of water, plates were air-dried in the dark. Plates were scanned and analysed using the Immunospot S6 Macro analyser, which is equipped with BioSpot analysis software for counting immunostained plaques (virospots). Plaque counts were used to calculate % infection relative to the mean of the plaque count in the virus control wells for RSV. The EC50 value was calculated as 50% reduction in signal, respectively, by interpolation of inhibition curves fitted with a 4-parameter nonlinear regression with a variable slope in Dotmatics. Plaque EC50 and cell toxicity CC50 values are a mean of at least two experiments and figures are rounded to whole units.
On the technique in general: Plaque reduction counts the foci of infection that form in a cell layer.

Another series is described as follows: Cell cytotoxicity CC50. In kind it is cell-based. As to conditions: human, Hep-G2 cells; mean of at least two experiments unless (n = 1).
Series [1] can be described thus: Liver microsomal stability, rat. The format is in vitro ADME. As to conditions: pooled liver microsomes, pH 7.4, 0.5 mg/mL protein, 1 μM compound, NADPH, read-out: Liver Microsomal Stability t1/2. Here is the method:
(§1) Compounds were subjected to the following assays to investigate liver microsomal stability and hepatocyte stability.
(§2) Pooled liver microsomes were purchased from a reputable commercial supplier and stored at −80° C. prior to use. Microsomes (final protein concentration 0.5 mg/mL), 0.1 M phosphate buffer pH 7.4 and test compound (final substrate concentration 1 μM; final DMSO concentration 0.25%) were pre-incubated at 37° C. prior to the addition of NADPH (final concentration 1 mM) to initiate the reaction. The final incubation volume was 50 μL. A control incubation was included for each compound tested where 0.1 M phosphate buffer pH 7.4 was added instead of NADPH (minus NADPH). Two control compounds were included with each species. All incubations were performed singularly for each test compound. Each compound was incubated for 0, 5, 15, 30 and 45 min. The control (minus NADPH) was incubated for 45 min only. The reactions were stopped by transferring incubate into acetonitrile at the appropriate time points, in a 1:3 ratio. The termination plates are centrifuged at 3,000 rpm for 20 min at 4° C. to precipitate the protein. Following protein precipitation, the sample supernatants were combined in cassettes of up to 4 compounds, internal standard added, and samples analysed by LC-MS/MS. From a plot of In peak area ratio (compound peak area/internal standard peak area) against time, the gradient of the line was determined. Subsequently, half-life (t1/2) and intrinsic clearance (CLint) were calculated.

A short description of series [2]: Liver microsomal stability, human. The format is in vitro ADME. As to conditions: pooled liver microsomes, pH 7.4, 0.5 mg/mL protein, 1 μM compound, NADPH, read-out: Liver Microsomal Stability t1/2. Here is the method: as §1, §2
Background: Liver microsomes are a subcellular fraction often used to study metabolism.

Series [3] is described as follows: Liver microsomal stability, dog. In kind it is in vitro ADME. As to conditions: pooled liver microsomes, pH 7.4, 0.5 mg/mL protein, 1 μM compound, NADPH, read-out: Liver Microsomal Stability t1/2. Here is the method:
as §1, §2

Where [4] appears, read: human respiratory syncytial virus, HepG2, 48 h.

Structures can show the parent of a compound that is named as a salt. Where two headings read alike, the source gives them in different places. A value given as a limit tells only on which side of the number the result lay.

Broadly, the CC50 is the concentration at which the toxic effect on the cells reaches its halfway point. A high value points to lower toxicity to the cells. Usually EC50 stands for the midpoint of the concentration-response curve. Molecule `NCC(=O)OCc1ccc(-c2nn3cccnc3c2C(=O)N[C@H]2N=C(c3ccccc3)c3ccccc3NC2=O)c(F)c1` [Example 29, 3-Fluoro-4-(3-{[(3S)-2-oxo-5-phenyl-1,3-dihydro-1,4-benzodiazepin-3-yl]carbamoyl}pyrazolo[1,5-a]pyrimidin-2-yl)phenyl]methyl aminoacetate hydrochloride] displayed a CC50 in the series with Hep-G2 cells above 25 µM. For the same molecule, the EC50 in the series with RSV A2 was 0.049 µM.

For the molecule `CC(O)c1ccc(-c2nn3cccnc3c2C(=O)N[C@H]2N=C(c3ccccc3)c3cccc(F)c3NC2=O)c(F)c1` (single isomer, unassigned) [Example 17-2, 2-[2-Fluoro-4-[(1R*)-1-hydroxyethyl]phenyl]-N-[(3S)-9-fluoro-2-oxo-5-phenyl-1,3-dihydro-1,4-benzodiazepin-3-yl]pyrazolo[1,5-a]pyrimidine-3-carboxamide], in the series with Hep-G2 cells, the CC50 is above 2.5 µM. Further, the EC50 in the series on RSV A2 is 0.0078 µM.

Molecule `O=C(N[C@H]1N=C(c2ccccc2)c2cccc(F)c2NC1=O)c1c(-c2cnn(C3CCOCC3)c2)nn2cccnc12` [Example 6, N-[(3S)-9-fluoro-2-oxo-5-phenyl-1,3-dihydro-1,4-benzodiazepin-3-yl]-2-[1-(oxan-4-yl)pyrazol-4-yl]pyrazolo[1,5-a]pyrimidine-3-carboxamide] gave a CC50 in “Cell cytotoxicity CC50” above 25 µM. For the same molecule, the half-life at 1 μM in series [1] was 1.42 h; in series [2] it was 4.32 h; in series [3], 2.07 h. Moreover, the EC50 with RSV A2 (setting [4]) turned out to be 0.049 µM.

In the series “Cell cytotoxicity CC50”, `CC(C)(O)c1ccc(-c2nn3cccnc3c2C(=O)N[C@H]2N=C(c3ccccc3)c3cccc(F)c3NC2=O)c(F)c1` [Example 19, 2-[2-Fluoro-4-(2-hydroxypropan-2-yl)phenyl]-N-[(3S)-9-fluoro-2-oxo-5-phenyl-1,3-dihydro-1,4-benzodiazepin-3-yl]pyrazolo[1,5-a]pyrimidine-3-carboxamide] displayed a CC50 above 25 µM. The results for the half-life at 1 μM in series [1], in series [2] and in series [3] were 2.43 h, 2.82 h and 1.22 h, respectively. Further, the EC50 with RSV A2 (setting [4]) was 0.0085 µM.

With `CC(O)c1ccc(-c2nn3cccnc3c2C(=O)N[C@H]2N=C(c3ccccc3)c3ccccc3NC2=O)c(F)c1` (single isomer, unassigned) [Example 16-2, 2-[2-Fluoro-4-[(1R*)-1-hydroxyethyl]phenyl]-N-[(3S)-2-oxo-5-phenyl-1,3-dihydro-1,4-benzodiazepin-3-yl]pyrazolo[1,5-a]pyrimidine-3-carboxamide], the CC50 with Hep-G2 cells was above 2.5 µM. Moreover, in the series on RSV A2, the EC50 turned out to be 0.011 µM.

On to `O=C(N[C@H]1N=C(c2ccccc2)c2cccc(F)c2NC1=O)c1c(-c2cnn(CC(F)(F)F)c2)nn2cccnc12` [Example 3, N-[(3S)-9-fluoro-2-oxo-5-phenyl-1,3-dihydro-1,4-benzodiazepin-3-yl]-2-[1-(2,2,2-trifluoroethyl)pyrazol-4-yl]pyrazolo[1,5-a]pyrimidine-3-carboxamide], for which, in the series “Cell cytotoxicity CC50”, the CC50 was above 25 µM. The half-life at 1 μM in series [1] is 3.48 h; in series [2] it was above 2.33 h; in series [3], 1.78 h. For the same molecule, the EC50 with RSV A2 (setting [4]) is 0.066 µM.

For the molecule `CCn1cc(-c2nn3cccnc3c2C(=O)N[C@H]2N=C(c3ccccc3)c3cccc(F)c3NC2=O)cn1` [Example 13, 2-(1-Ethylpyrazol-4-yl)-N-[(3S)-9-fluoro-2-oxo-5-phenyl-1,3-dihydro-1,4-benzodiazepin-3-yl]pyrazolo[1,5-a]pyrimidine-3-carboxamide], the CC50 in the series “Cell cytotoxicity CC50” was above 25 µM. Moreover, the half-life at 1 μM is 7.52 h in series [1], 8.93 h in series [2] and 6.82 h in series [3]. Besides, in the series with RSV A2 (setting [4]), the EC50 came out at 0.058 µM.

`O=C(N[C@H]1N=C(c2ccccc2)c2cccc(F)c2NC1=O)c1c(-c2ccc(CCO)cc2F)nn2cccnc12` [Example 22, 2-[2-Fluoro-4-(2-hydroxyethyl)phenyl]-N-[(3S)-9-fluoro-2-oxo-5-phenyl-1,3-dihydro-1,4-benzodiazepin-3-yl]pyrazolo[1,5-a]pyrimidine-3-carboxamide] yielded a CC50 in “Cell cytotoxicity CC50” above 25 µM. The EC50 in the series with RSV A2 (setting [4]) amounted to 0.025 µM.

(Values after patent publication US20240173332A1, “BENZO[…] TREATING OR PREVENTING RESPIRATORY SYNCYTIAL VIRUS INFECTION” (Pfizer Inc., priority 2021, published 2024).)
